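Growth conditions: 96-well plates. Treatment: test compound, 48 hours, 5 concentrations. Analysis: linear interpolation between bracketing concentrations; unreached endpoints set to highest concentration. TGI: concentration producing complete growth inhibition.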
Tests used:
Test in all cases: NCI anticancer screen, dose series, 48 h
CCRF-CEM leukemia = system: CCRF-CEM leukemia
KM12 colon = system: KM12 colon
NCI-H23 lung = system: NCI-H23 lung
NCI-H226 lung = system: NCI-H226 lung
BT-549 breast = system: BT-549 breast
SN12C renal = system: SN12C renal
MDA-N = system: MDA-N
UO-31 renal = system: UO-31 renal
SW-620 colon = system: SW-620 colon
NCI/ADR-RES ovarian = system: NCI/ADR-RES ovarian
ACHN renal = system: ACHN renal
HCC-2998 colon = system: HCC-2998 colon
SNB-19 CNS = system: SNB-19 CNS
SNB-75 CNS = system: SNB-75 CNS
CAKI-1 renal = system: CAKI-1 renal
U251 CNS = system: U251 CNS

| Compound | TGI (CCRF-CEM leukemia) [µM] | TGI (KM12 colon) [µM] | TGI (NCI-H23 lung) [µM] | TGI (NCI-H226 lung) [µM] | TGI (BT-549 breast) [µM] | TGI (SN12C renal) [µM] | TGI (MDA-N) [µM] | TGI (UO-31 renal) [µM] | TGI (SW-620 colon) [µM] | TGI (NCI/ADR-RES ovarian) [µM] | TGI (ACHN renal) [µM] | TGI (HCC-2998 colon) [µM] | TGI (SNB-19 CNS) [µM] | TGI (SNB-75 CNS) [µM] | TGI (CAKI-1 renal) [µM] | TGI (U251 CNS) [µM] |
| --- | --- | --- | --- | --- | --- | --- | --- | --- | --- | --- | --- | --- | --- | --- | --- | --- |
| CC(C)N=C(NC#N)NS(=O)(=O)c1cnccc1Nc1ccc(Cl)cc1 | > 100 | > 100 | > 100 | > 100 | > 100 | > 100 | > 100 | > 100 | > 100 | > 100 | > 100 | > 100 | > 100 | > 100 | > 100 | > 100 |
| COC(=NCCC1=CCCCC1)OC | > 100 | > 100 | > 100 | – | > 100 | – | > 100 | > 100 | > 100 | > 100 | > 100 | 39.9 | > 100 | > 100 | > 100 | > 100 |
| COc1ccc(N[C@H](CS(=O)c2ccc(C)cc2)C(F)(F)C(F)(F)F)cc1 (some centres not stated) | > 100 | > 100 | > 100 | > 100 | > 100 | > 100 | > 100 | > 100 | > 100 | > 100 | > 100 | > 100 | > 100 | 75.6 | > 100 | > 100 |
| COc1ccc(C2=NN(c3ccccc3)C(c3cc4cc(Br)ccc4nc3Cl)C2)cc1 (configuration not stated) | > 25 | > 25 | > 25 | > 25 | > 25 | > 25 | > 25 | > 25 | > 25 | > 25 | – | – | > 25 | > 25 | > 25 | – |
| O=C1c2ccccc2C(=O)N1CCCCCCNOCCCN1C(=O)c2ccccc2C1=O | > 100 | 78.8 | 97.1 | > 100 | 85.4 | > 100 | > 100 | > 100 | > 100 | 70 | > 100 | > 100 | > 100 | > 100 | > 100 | > 100 |
| CC(=O)NCCc1c[nH]c2ccc(Cl)cc12 | > 100 | > 100 | > 100 | > 100 | > 100 | > 100 | > 100 | > 100 | > 100 | > 100 | > 100 | > 100 | > 100 | > 100 | > 100 | > 100 |
| Cn1cc(C[C@@H](N)C(=O)O)c2ccccc21 | > 100 | > 100 | > 100 | > 100 | > 100 | > 100 | > 100 | > 100 | > 100 | > 100 | > 100 | > 100 | > 100 | > 100 | > 100 | > 100 |
| Cc1cc2c(cc1C)[n+](=O)c(C(=O)N1CCN(c3ccc([N+](=O)[O-])cc3)CC1)c(C)n2[O-] | > 100 | > 100 | > 100 | – | 49.9 | > 100 | > 100 | > 100 | > 100 | > 100 | 12.7 | > 100 | > 100 | – | > 100 | 41.3 |
| CN(C)CC(CO)(CN(C)C)CN(C)C | > 100 | > 100 | > 100 | > 100 | > 100 | > 100 | > 100 | > 100 | > 100 | > 100 | > 100 | – | > 100 | > 100 | > 100 | > 100 |
| COC(=O)/C=C1/N=C(N(C)/N=C/c2ccccc2)NC1=O | > 100 | > 100 | > 100 | – | > 100 | > 100 | > 100 | > 100 | > 100 | > 100 | – | > 100 | > 100 | > 100 | > 100 | – |
| COc1cc(C(N)=O)cc(NC(=O)/C=C/c2ccccc2)c1OC | > 100 | > 100 | > 100 | – | > 100 | > 100 | > 100 | > 100 | > 100 | > 100 | > 100 | > 100 | > 100 | 93.1 | > 100 | > 100 |
| CCOC(=O)c1cc2c([nH]1)C(=O)CC1=C2CCN1Cc1ccccc1 | 28.6 | 33.2 | 29.6 | 32.3 | 38.3 | 35.3 | 26.8 | 29.5 | 23.3 | 43.5 | 25.6 | – | 31.8 | 46.2 | 15 | 25.4 |
| CC(C)CC(=O)NC(NC(C)C)(C(F)(F)F)C(F)(F)F | > 100 | > 100 | – | > 100 | > 100 | > 100 | > 100 | > 100 | > 100 | > 100 | > 100 | > 100 | > 100 | > 100 | > 100 | > 100 |
| Cc1ccc2[nH]c3[nH]c(=O)[nH]c(=O)c3c2c1 | > 100 | > 100 | > 100 | > 100 | > 100 | > 100 | > 100 | > 100 | > 100 | > 100 | > 100 | – | > 100 | > 100 | > 100 | – |
| COc1ccccc1S(=O)Nc1ccccc1 (configuration not stated) | > 100 | 85.1 | > 100 | > 100 | > 100 | > 100 | > 100 | > 100 | > 100 | > 100 | > 100 | > 100 | > 100 | – | – | > 100 |
| COC(=O)NN=C(c1ccc(Cl)cc1)c1ccc(Cl)cc1 | > 100 | > 100 | > 100 | > 100 | > 100 | > 100 | > 100 | > 100 | > 100 | > 100 | – | > 100 | > 100 | > 100 | > 100 | > 100 |
